# Reference: patent US9079913B2, “Spiro-oxindole MDM2 antagonists” (The Regents of the University of Michigan, priority 2009, dated 2015)
# Several values for one entry are separate records, joined by “and”; a condition that tells them apart may be missing. Identical values can stand only once.
# Legend:
# [1] = Pharmacokinetic studies in ICR mice; format: in vivo; parameters: Measured concentrations in the plasma samples: unit not given here; details: for Measured concentrations in the plasma samples: single i.v. dose 10 mg/kg; for Plasma Concentrations: single p.o dose 50 mg/kg
# [2] = Pharmacokinetic studies in Beagle dogs; format: in vivo
# [3] = test system: SJSA-1 xenograft tumors; test: In vivo efficacy, SJSA-1 xenograft model (tumor volume); parameters: species or system C.B-17 SCID mice; details: PO 300 mg/kg
# [4] = In vitro microsomal stability, human; format: in vitro ADME; details: for Microsomal stability, % remaining: Human microsomes
# [5] = In vitro microsomal stability, dog; format: in vitro ADME; details: for Microsomal stability, % remaining: Dog microsomes
# [6] = test system: SJSA-1 xenograft tumors; details: mice bearing SJSA-1 xenograft, oral 200-300 mg/kg daily or twice a day, 2 weeks; cited from earlier work
substance,measurement,setting,value
MI-219,AUC,[1]; 50 mg/kg oral dosing,8469 ± 2381 ng·h/mL
same,AUC 0→9 h,[1]; p.o. 50 mg/kg,26839 ng·h/mL and 16158 ng·h/mL and 14622 ng·h/mL
same,F,[1]; p.o. 50 mg/kg,76.7% and 46.2% and 41.8% and 54.9 ± 19.0%
same,Kel,[1]; p.o. 50 mg/kg,0.37 and 0.69
same,MRT,[1]; p.o. 50 mg/kg,2.5813 h and 2.043 h and 2.2585 h
same,Tmax,[1]; p.o. 50 mg/kg,2 h
same,Cmax,"[1]; p.o. 50 mg/kg, groups and Mean ± SD",10399 ng/mL and 9201 ng/mL and 9082 ng/mL and 9561 ± 728 ng/mL
same,AUC 0→9 h,"[1]; p.o. 50 mg/kg, mean",19206 ± 6655 ng·h/mL
same,Kel,"[1]; p.o. 50 mg/kg, mean",0.47 ± 0.19
same,MRT,"[1]; p.o. 50 mg/kg, mean",2.29 ± 0.27 h
same,Measured concentrations in the plasma samples,"[1]; 5 min, groups and Mean ± SD, mean",18041 ± 3799
same,Measured concentrations in the plasma samples,"[1]; 15 min, mean",5823 ± 701
same,Measured concentrations in the plasma samples,"[1]; 30 min, mean",3570 ± 871
same,Measured concentrations in the plasma samples,"[1]; 45 min, mean",1731 ± 429
same,Measured concentrations in the plasma samples,"[1]; 1 h, mean",1223 ± 141
same,Measured concentrations in the plasma samples,[1]; 24 h,BLQ
same,Plasma Concentrations,[1]; 15 min,2927 ng/mL and 1700 ng/mL and 1503 ng/mL
same,Plasma Concentrations,"[1]; 15 min, mean",2043 ± 772 ng/mL
same,Plasma Concentrations,[1]; 2 h,10399 ng/mL and 9201 ng/mL and 5808 ng/mL
same,Plasma Concentrations,"[1]; 2 h, mean",8469 ± 2381 ng/mL
same,Plasma Concentrations,[1]; 5 h,522 ng/mL and 277 ng/mL and 334 ng/mL
same,Plasma Concentrations,"[1]; 5 h, mean",378 ± 128 ng/mL
same,Plasma Concentrations,[1]; 24 h,Beyond
same,oral bioavailability in dogs (in words),[2],orally bioavailable
same,AUC,[2]; 10 mg/kg oral dosing,7947 ± 2396 ng·h/mL
same,MRT,[2]; IV 2.0 mg/kg,1.22 h and 1.81 h and 1.87 h
same,Plasma Concentration,"[2]; IV 2.0 mg/kg, 0.117 h, dogs and Mean",4069 ng/mL and 7668 ng/mL
same,Plasma Concentration,"[2]; IV 2.0 mg/kg, 0.117 h, dogs and Mean, mean",5868 ng/mL
same,Plasma Concentration,"[2]; IV 2.0 mg/kg, 0.20 h",2623 ng/mL and 2272 ng/mL and 3918 ng/mL
same,Plasma Concentration,"[2]; IV 2.0 mg/kg, 0.20 h, mean",2938 ng/mL
same,Plasma Concentration,"[2]; IV 2.0 mg/kg, 0.5 h",1888 ng/mL and 1192 ng/mL and 1795 ng/mL
same,Plasma Concentration,"[2]; IV 2.0 mg/kg, 0.5 h, mean",1625 ng/mL
same,Plasma Concentration,"[2]; IV 2.0 mg/kg, 1.0 h",853 ng/mL and 704 ng/mL and 1044 ng/mL
same,Plasma Concentration,"[2]; IV 2.0 mg/kg, 1.0 h, mean",867 ng/mL
same,Plasma Concentration,"[2]; IV 2.0 mg/kg, 3.0 h",331 ng/mL and 402 ng/mL
same,Plasma Concentration,"[2]; IV 2.0 mg/kg, 3.0 h, mean",367 ng/mL
same,Plasma Concentration,"[2]; IV 2.0 mg/kg, 4.0 h",256 ng/mL and 188 ng/mL and 248 ng/mL
same,Plasma Concentration,"[2]; IV 2.0 mg/kg, 4.0 h, mean",231 ng/mL
same,Plasma Concentration,"[2]; IV 2.0 mg/kg, 6.0 h",114.3 ng/mL and 81.1 ng/mL and 119 ng/mL
same,Plasma Concentration,"[2]; IV 2.0 mg/kg, 6.0 h, mean",105 ng/mL
same,Plasma Concentration,"[2]; IV 2.0 mg/kg, 8.0 h",52.2 ng/mL and 39.7 ng/mL and 57.8 ng/mL
same,Plasma Concentration,"[2]; IV 2.0 mg/kg, 8.0 h, mean",49.9 ng/mL
same,Plasma Concentration,"[2]; IV 2.0 mg/kg, 12 h",17.9 ng/mL and 9.75 ng/mL and 19.4 ng/mL
same,Plasma Concentration,"[2]; IV 2.0 mg/kg, 12 h, mean",15.7 ng/mL
same,T½,"[2]; IV 2.0 mg/kg, dogs and Mean",4.32 h and 3.00 h and 4.36 h
same,T½,"[2]; IV 2.0 mg/kg, dogs and Mean, mean",3.90 h
same,MRT,"[2]; IV 2.0 mg/kg, mean",1.63 h
same,AUC(0-t),[2]; PO 10 mg/kg,9665 ng·h/mL and 5210 ng·h/mL and 8967 ng·h/mL
same,AUC(0-∞),[2]; PO 10 mg/kg,9681 ng·h/mL and 5226 ng·h/mL and 8985 ng·h/mL
same,Cmax,[2]; PO 10 mg/kg,3001 ng/mL and 3560 ng/mL and 2119 ng/mL and 3323 ng/mL
same,F,[2]; PO 10 mg/kg,26.1% and 26.8% and 28.6%
same,MRT,[2]; PO 10 mg/kg,3.09 h and 2.71 h and 3.33 h
same,Tmax,[2]; PO 10 mg/kg,0.83 h and 1.0 h and 0.5 h
same,Plasma Concentration,"[2]; PO 10 mg/kg, 0.5 h, dogs and Mean",2101 ng/mL and 1842 ng/mL and 3323 ng/mL
same,Plasma Concentration,"[2]; PO 10 mg/kg, 0.5 h, dogs and Mean, mean",2422 ng/mL
same,Plasma Concentration,"[2]; PO 10 mg/kg, 1 h",3560 ng/mL and 2119 ng/mL and 2999 ng/mL
same,Plasma Concentration,"[2]; PO 10 mg/kg, 1 h, mean",2893 ng/mL
same,Plasma Concentration,"[2]; PO 10 mg/kg, 4 h",483 ng/mL and 603 ng/mL and 312 ng/mL and 535 ng/mL
same,Plasma Concentration,"[2]; PO 10 mg/kg, 24 h",4.05 ng/mL and 3.78 ng/mL and 4.48 ng/mL
same,Plasma Concentration,"[2]; PO 10 mg/kg, 24 h, mean",4.10 ng/mL
same,T½,"[2]; PO 10 mg/kg, dogs and Mean",2.77 h and 3.03 h and 2.81 h
same,T½,"[2]; PO 10 mg/kg, dogs and Mean, mean",2.87 h
same,AUC(0-t),"[2]; PO 10 mg/kg, mean",7947 ng·h/mL
same,AUC(0-∞),"[2]; PO 10 mg/kg, mean",7964 ng·h/mL
same,MRT,"[2]; PO 10 mg/kg, mean",3.04 h
same,% Tumor Growth Inhib. T/C Control 750 mm^3 D27,"[3]; Exp. No. 1, SJSA-1 xenograft, D27",44.3%
same,% Tumor Growth Inhib. T/C Control 750 mm^3 D24,"[3]; Exp. No. 2, SJSA-1 xenograft, D24",30.1%
same,% Tumor Growth Inhib. T/C Control 750 mm^3 D29,"[3]; Exp. No. 3, SJSA-1 xenograft, D29",15.8%
same,"Microsomal stability, % remaining",[4]; 0 min,100.00%
same,"Microsomal stability, % remaining",[4]; 5 min,78.76%
same,"Microsomal stability, % remaining",[4]; 10 min,58.19%
same,"Microsomal stability, % remaining",[4]; 15 min,46.46%
same,"Microsomal stability, % remaining",[4]; 30 min,26.46%
same,"Microsomal stability, % remaining",[4]; 45 min,20.88%
same,"Microsomal stability, % remaining",[4]; 60 min,11.86%
same,microsomal stability (in words),[4]; human liver microsomes,metabolized fairly rapidly
same,"Microsomal stability, % remaining",[5]; 0 min,100.00%
same,"Microsomal stability, % remaining",[5]; 5 min,83.38%
same,"Microsomal stability, % remaining",[5]; 10 min,71.22%
same,"Microsomal stability, % remaining",[5]; 15 min,71.51%
same,"Microsomal stability, % remaining",[5]; 30 min,54.96%
same,"Microsomal stability, % remaining",[5]; 45 min,33.81%
same,"Microsomal stability, % remaining",[5]; 60 min,32.52%
same,microsomal stability (in words),[5]; dog microsomes,metabolized fairly rapidly
same,tumor growth inhibition (in words),[6],effective tumor growth inhibition
